{"source": "patent US9532997B2", "about": "“Compositions and methods for promoting intestinal stem cell function” (Whitehead Institute for Biomedical Research, priority 2012, dated 2017)", "key": {"Bst-1": {"tested_on": "Bst-1", "assay": "Bst-1 protein expression by immunoblots of crypts and immunostains of Paneth cells", "type": "in vivo, mice", "conditions": "FIG. 4c", "description": "(§1) Tissues were fixed in 10% formalin, paraffin embedded, and sectioned. Antigen retrieval was performed with Borg Decloaker RTU solution (Biocare Medical) in a pressurized Decloaking Chamber (Biocare Medical) for 3 minutes. Antibodies: rat anti-BrdU (1:2000; Abeam 6326), rabbit phospho-S6 Ser235/236 (1:500, CST 4858), rabbit cleaved caspase 3 (1:500; CST 9664), rabbit chromogranin A (1:3000, Abeam 15160), rabbit Lysozyme (1:2000; Thermo), rabbit Bst-1 (1:1000, Abeam 74301) and mouse Bst-1 (1:100 to 500, BD Pharmingen). For mouse Bst-1, the M.O.M (mouse on mouse) kit was used according to the manufacturer's instructions (Vector labs PK-2200). Biotin conjugated secondary donkey anti-rabbit or rat antibodies were used from Jackson ImmunoResearch. The Vectastain Elite ABC immunoperoxidase detection kit (Vector Labs PK-6101) followed by Dako Liquid DAB+ Substrate (Dako) was used for visualization. For immunofluorescence Alexa Fluor 568 secondary antibodies (Invitrogen) were used. All antibody incubations were performed with Common Antibody Diluent (Biogenex).\nAntibodies: rabbit anti phospho-T389 S6K1, phospho-S240/244 S6, S6K1, and S6 from CST; rabbit Bst-1 (ab74301) from Abeam; mouse anti_-actin (clone AC-15) from Sigma. […] Proteins extracts were denatured by the addition of sample buffer, boiled for […], resolved by SDS-PAGE, and analyzed by immunoblotting."}, "cleaved caspase 3": {"tested_on": "cleaved caspase 3", "assay": "Enterocyte apoptosis, cleaved caspase 3 immunostain", "type": "in vivo, mice", "conditions": "n=3 per group, FIG. 7", "description": "as §1"}, "intestinal crypts": {"tested_on": "intestinal crypts", "assay": "Organoid formation (clonogenicity) of intestinal crypts isolated from treated mice", "type": "in vivo", "source_text": "Mice were housed in the Unit for Laboratory Animal Medicine at the Whitehead Institute for Biomedical Research. Lgr5-EGFP-IRES-CreERT2 mice (Strain name: B6.129P2-Lgr5tm1(cre/ERT2)Cle/J, Stock Number: 008875) were purchased from Jackson Laboratories. UbiquitinC-CreERT2 mice were obtained from the Jackson Laboratory (Strain Name: B6; 129S-Tg(UBC-cre/ERT2)1Ejb/J, Stock Number: 007001). Rictor floxed mice were generated as described in^27 and backcrossed to C57BL/6 for at least 6 generations. TSC1^loxp/loxp mice were the generous gift of D. Kwiatkowski (Harvard Medical School) and backcrossed to C57BL/6 for at least 6 generations. Rosa26-CreERT2 mice (Rosa26 or R26) were obtained from the Jackson Laboratory (Strain 15 Name: B6.129-Gt(ROSA)26Sor^iml(cre/ERT2)Tyj/J, Stock Number 008463). CR was achieved by providing individual or paired mice a daily portion of a chow diet fortified with vitamins and minerals amounting to 60% of the daily food intake of their ad libitum counterparts^20. All adult mice used in CR experiments were between the ages of 10 to 24 weeks and were sacrificed prior to their daily feeding. Rictor or TSC1 was excised by treatment with tamoxifen suspended in corn or sunflower seed oil (Spectrum) at a concentration of 10 mg/mL, and 200 μl per 25 g of body weight was injected intraperitoneally into mice once daily for 5-7 days. […] Mice were allowed to recover for at least 7 days after the last tamoxifen injection prior to any experiments. In vivo fate mapping in Lgr5-EGFP-IRES-reERT2; Rosa26loxpstoploxp-LacZ compound mice was done with a single injection of tamoxifen given at 200 μl per 25 g. As described previously^28, Rapamycin (LC Laboratories) was administered by intraperitoneal injection for 7 to 28 consecutive doses at 4 mg/kg. It was reconstituted in absolute ethanol at 10 mg/ml and diluted in 5% Tween-80 (Sigma) and 5% PEG-400 (Hampton Research) before injection. The final volume of all injections was 200 μl. Regular insulin (Lilly) was administered at 0.75 U/kg diluted in PBS 20 minutes prior to sacrificing fasted mice.\nSmall intestines were removed and the fat/mesentery was dissected away. The intestinal lumen was washed with ice cold PBS (Mg—/Ca—) using a 18 G feeding needle (Roboz FN-7905) until the intestines appeared white/pink. They were then opened longitudinally. The mucous was removed by gently rubbing the intestine between fingers in cold PBS. The intestines were cut into 3 to 5 mm fragments and placed into 50 ml conical tubes that were fill with ice cold 30 ml of PBS (Mg—/Ca—)/EDTA (10 mM). The samples were incubated and shook intermittently on ice for 30 minutes continuously discarding and replacing (at least 3 times) the supernatant. […]"}, "Lgr5^hi ISCs": {"tested_on": "Lgr5^hi ISCs", "assay": "Frequency of Lgr5hi ISCs by flow cytometry in rapamycin-treated mice", "type": "in vivo", "conditions": "Rapamycin 4 mg/kg daily i.p., 4 weeks, n=13-14, FIG. 3g", "source_text": "Mice were housed in the Unit for Laboratory Animal Medicine at the Whitehead Institute for Biomedical Research. Lgr5-EGFP-IRES-CreERT2 mice (Strain name: B6.129P2-Lgr5tm1(cre/ERT2)Cle/J, Stock Number: 008875) were purchased from Jackson Laboratories. UbiquitinC-CreERT2 mice were obtained from the Jackson Laboratory (Strain Name: B6; 129S-Tg(UBC-cre/ERT2)1Ejb/J, Stock Number: 007001). Rictor floxed mice were generated as described in^27 and backcrossed to C57BL/6 for at least 6 generations. TSC1^loxp/loxp mice were the generous gift of D. Kwiatkowski (Harvard Medical School) and backcrossed to C57BL/6 for at least 6 generations. Rosa26-CreERT2 mice (Rosa26 or R26) were obtained from the Jackson Laboratory (Strain 15 Name: B6.129-Gt(ROSA)26Sor^iml(cre/ERT2)Tyj/J, Stock Number 008463). CR was achieved by providing individual or paired mice a daily portion of a chow diet fortified with vitamins and minerals amounting to 60% of the daily food intake of their ad libitum counterparts^20. All adult mice used in CR experiments were between the ages of 10 to 24 weeks and were sacrificed prior to their daily feeding. Rictor or TSC1 was excised by treatment with tamoxifen suspended in corn or sunflower seed oil (Spectrum) at a concentration of 10 mg/mL, and 200 μl per 25 g of body weight was injected intraperitoneally into mice once daily for 5-7 days. […]"}}, "note": "Entries after “also recorded” stand apart in the source; their conditions may differ."}
{"compound": "CO[C@H]1C[C@@H]2CC[C@@H](C)[C@@](O)(O2)C(=O)C(=O)N2CCCC[C@H]2C(=O)O[C@H]([C@H](C)C[C@@H]2CC[C@@H](O)[C@H](OC)C2)CC(=O)[C@H](C)/C=C(\\C)[C@@H](O)[C@@H](OC)C(=O)[C@H](C)C[C@H](C)/C=C/C=C/C=C/1C", "note": "[Rapamycin, sirolimus]", "values": [{"measurement": "Bst-1 protein expression", "setting": "Bst-1; crypts (immunoblots) and Paneth cells (immunostains) of treated mice, d", "value": "increased"}, {"measurement": "SDS-PAGE mobility of Bst-1", "setting": "Bst-1; immunoblots of crypts", "value": "affected the SDS-PAGE mobility of Bst-1"}, {"measurement": "cleaved caspase 3 (enterocyte apoptosis) vs AL controls", "setting": "cleaved caspase 3", "value": "no increase"}, {"measurement": "effect of combination of CR and rapamycin on crypt organoid formation", "setting": "intestinal crypts; CR+R treated mice, FIG. 3i", "value": "non-additive"}, {"measurement": "organoids per intestinal crypt, increase vs vehicle-treated mice", "setting": "intestinal crypts; crypts isolated from mice given 4 mg/kg daily, n=3-5, FIG. 3i", "value": "~2", "unit": "fold"}, {"measurement": "organoid body formation of crypts compared with CR", "setting": "intestinal crypts; mice treated for 1 week, FIG. 3i", "value": "as capable of forming organoid bodies as those from mice on CR"}, {"measurement": "crypt clonogenicity after Rictor deletion (mTORC2 independence)", "setting": "intestinal crypts; rapamycin 1 to 3 weeks after Rictor-deletion in Rictorfl/fl UBC-CreERT2 mice vs WT, FIG. 3k", "value": "increased the clonogenicity of crypts irrespective of whether they were isolated from adult intestines expressing or lacking Rictor; also recorded: increased crypt clonogenicity to a similar extent as those isolated from rapamycin treated wild-type (WT) mice"}, {"measurement": "increase in frequency of ISCs vs vehicle", "setting": "Lgr5^hi ISCs", "value": "more than 1.5 fold"}]}
